Results published in patent US20220162215A1, “COMPOSITIONS AND METHODS OF USING THE SAME FOR TREATMENT OF NEURODEGENERATIVE AND MITOCHONDRIAL DISEASE” (MITOKININ, INC., priority 2019, published 2022).
Like-named read-outs stand apart in the source and are kept apart here.

Experiments:
HeLa MKYP cells [1] = assay: Human mitophagy assay (HeLa MKYP, mtKeima FACS, FCCP/oligomycin); type: cell-based; details: for activation at 1.6 µM / activation at 6.3 µM: 6 h, read-out: Potency at 1 μM F/O toxin*; for activation at 1.6 µM / Potency at 1 μM F/O toxin*: Table 2, % activation of mitophagy at 1.6 μM treatment of the compound; for Potency at 1 μM F/O toxin: Table 1; for Potency at 1 μM F/O toxin / activation at 6.3 µM: % activation of mitophagy at 6.3 μM treatment of the compound
Method: (§1) Briefly, HeLa MKYP cells were plated at 10,000 cells/well in 96 well plates along with compounds at various concentrations. Following 16 hrs of incubation, cells were treated with 1 uM FCCP/oligomycin for 6 hours, then analyzed via FACS for the presence of mitochondria in lysosomes (as determined by an emissions spectrum shift from the pH-sensitive mtKeima tag). Examples are shown in FIG. 1 through FIG. 13 below.

HeLa MKYP cells [2] = assay: Toxicity / cell death measured by DAPI staining (take-up); type: cell-based; details: 50 μM; for Toxicity (% positive for DAPI take-up at 50 μM)*: Table 3 Supplement A; for Toxicity (% positive for DAPI take-up @ 50 μM): Table 1
Method: H2O2 treatment was performed as a control for cell death as measured by DAPI staining.
as §1, with “tag).” for “tag). Examples are shown in FIG. 1 through FIG. 13 below.”

[3] = Homo sapiens, HeLa, Table 3, read-out: Potency at 1 μM F/O toxin* (EC50 of mitophagy activation)
[4] = Homo sapiens, HeLa, Table 3 Supplement A, as measured in Table 3, read-out: Potency (EC50 Max Mitophagy) (μM)*

SMILES | EC50 (HeLa MKYP cells [1]; [3]) [µM] | EC50 (HeLa MKYP cells [1]; [4]) [µM] | Toxicity (% positive for DAPI takeup @ 50 μM) (HeLa MKYP cells [2]; Table 3) [%] | Toxicity (% positive for DAPI take-up at 50 μM)* (HeLa MKYP cells [2]) [%] | also measured
CCCCNc1ncnc2[nH]c(C3CC3)nc12 [Compound 34886, N-butyl-8-cyclopropyl-9H-purin-6-amine] |  |  |  |  | EC50 (HeLa MKYP cells [1]; Homo sapiens, HeLa, Table 4, read-out: Potency (EC50 Max Mitophagy)): 9.1 µM; Toxicity (% positive for DAPI takeup @ 50 μM) (HeLa MKYP cells [2]; Table 4): 9.1%
Clc1cccc(CNc2ncnc3nc[nH]c23)c1 [Compound 58] | 16 | 16 | 12.5 | 12.54 | 
FC(F)(F)c1cc2c(NC3CCc4ccccc43)ncnc2[nH]1 (stereo not shown) [Compound 17] |  |  |  |  | activation at 1.6 µM (HeLa MKYP cells [1]; Homo sapiens, HeLa): 14.8%; Toxicity (% positive for DAPI takeup @ 50 μM) (HeLa MKYP cells [2]; Table 2): 2.3%
FC(F)(F)c1cc2c(NC3CCCc4ccccc43)ncnc2[nH]1 (stereo not shown) [Compound 32] | > 50 |  | 27.1 |  | 
OC[C@H](Nc1ncnc2[nH]cnc12)c1ccccc1 [Compound 75] | 3.5 | 3.48 | 14.5 | 14.49 | 
CCCCNc1ncnc2[nH]c(C)cc12 [Compound 8] |  |  |  |  | Potency at 1 μM F/O toxin (HeLa MKYP cells [1]): 43.4%; Toxicity (% positive for DAPI take-up @ 50 μM) (HeLa MKYP cells [2]): 15.4%
C[C@@H](Nc1ncnc2[nH]c(C3CC3)nc12)c1ccccc1 [Compound 47] | > 50 | > 25 | 12.3 | 12.33 | 
c1ccc2c(c1)CC[C@H]2Nc1ncnc2[nH]cnc12 [Compound 55] | > 50 | > 25 | 10.3 | 10.31 | 
c1ccc(CCNc2ncnc3[nH]cnc23)cc1 [Compound 60] | 2.8 | 2.26 | 19.7 | 23.09 | 
COc1ncccc1CNc1ncnc2[nH]c(C(F)(F)F)cc12 [Compound 22] |  |  | 7.6 |  | activation at 6.3 µM (HeLa MKYP cells [1]; Homo sapiens, HeLa, Table 3): 18.5%
CCCCNc1ncnc2[nH]c(C3CC3)nc12 [Compound 29] | 18.8 |  | 16.2 |  | 
CCCCNc1ncnc2[nH]c(C3CCC3)nc12 [EP-0035339, N-butyl-8-cyclobutyl-9H-purin-6-amine] |  | > 25 |  | 6.13 | 
c1ccc(C2(Nc3ncnc4[nH]cnc34)CC2)cc1 [Compound 72] | > 50 | > 25 | 13.4 | 13.38 | 
FC(F)(F)c1cc2c(NC3CCN(Cc4ccccc4)CC3)ncnc2[nH]1 [Compound 78] | 21.4 | 21.4 | 43.9 | 43.86 | 
FC(F)(F)c1cc2c(NC3COCc4ccccc43)ncnc2[nH]1 (stereo not shown) [Compound 34] | > 50 |  | 42.9 |  | 
c1ccc2c(c1)OCC[C@H]2Nc1ncnc2[nH]cnc12 [Compound 62] | > 50 | > 25 | 16.0 | 15.96 | 
c1coc(CNc2ncnc3[nH]c(C4CCC4)nc23)c1 [EP-0035338, 8-cyclobutyl-N-(2-furylmethyl)-9H-purin-6-amine] |  | > 25 |  | 3.04 | 
C[C@@H](Nc1nccc2[nH]cnc12)c1ccccc1 [Compound 64] | > 50 | > 25 | 7.6 | 7.63 | 
FC(F)(F)c1cc2c(NCc3cncnc3)ncnc2[nH]1 [Compound 49] | 11.7 |  |  |  | Toxicity (% positive for DAPI takeup @ 50 μM) (HeLa MKYP cells [2]; human): 23.0%
C[C@H](Nc1ncnc2[nH]c(C3CC3)nc12)c1ccccc1 [Compound 46] | 3.2 | 3.17 | 27.6 | 27.61 | 
FC(F)(F)c1cc2c(NCc3ccncn3)ncnc2[nH]1 [Compound 20] |  |  | 1.5 |  | activation at 6.3 µM (HeLa MKYP cells [1]; Homo sapiens, HeLa, Table 3): 7.9%
CCCCNc1ncnc2[nH]c(C(OCC)C(F)(F)F)cc12 (stereo not shown) [Compound 3] |  |  |  |  | Potency at 1 μM F/O toxin (HeLa MKYP cells [1]): 25.9%; Toxicity (% positive for DAPI take-up @ 50 μM) (HeLa MKYP cells [2]): 15.8%
COc1cc(CNc2ncnc3[nH]c(C4CC4)nc23)ccn1 [EP-0036032, 8-cyclopropyl-N-[(2-methoxy-4-pyridyl)methyl]-9H-purin-6-amine] |  | > 25 |  | 7.06 | 
CC(Nc1ncnc2[nH]c(C(F)(F)F)cc12)c1ccccc1 (stereo not shown) [Compound 12] |  |  |  |  | activation at 1.6 µM (HeLa MKYP cells [1]; Homo sapiens, HeLa): 88.4%; Toxicity (% positive for DAPI takeup @ 50 μM) (HeLa MKYP cells [2]; Table 2): 2.4%

SMILES | EC50 (HeLa MKYP cells [1]; [3]) [µM] | EC50 (HeLa MKYP cells [1]; [4]) [µM] | Toxicity (% positive for DAPI takeup @ 50 μM) (HeLa MKYP cells [2]; Table 3) [%] | Toxicity (% positive for DAPI take-up at 50 μM)* (HeLa MKYP cells [2]) [%] | also measured
FC(F)(F)c1cc2c(N[C@H]3CCOc4ccccc43)ncnc2[nH]1 [Compound 42] | 5.6 | 5.64 | 37.7 | 37.66 | 
FC(F)(F)c1cc2c(NCc3cccc(Cl)c3)ncnc2[nH]1 [Compound 25] |  |  | 20.3 |  | activation at 6.3 µM (HeLa MKYP cells [1]; Homo sapiens, HeLa, Table 3): 49.9%
FC(F)(F)c1cc2c(N[C@@H]3COc4ccccc43)ncnc2[nH]1 [Compound 41] | 14.9 | 14.9 | 29.2 | 29.25 | 
CCCCNc1ncnc2[nH]c(-c3ccccc3)cc12 [Compound 6] |  |  |  |  | Potency at 1 μM F/O toxin (HeLa MKYP cells [1]): 52.0%; Toxicity (% positive for DAPI take-up @ 50 μM) (HeLa MKYP cells [2]): 90.0%
FC(F)(F)c1cc2c(NC3CCCc4ccccc43)ncnc2[nH]1 (stereo not shown) [Compound 16] |  |  |  |  | Potency at 1 μM F/O toxin* (HeLa MKYP cells [1]): 10.1%; Toxicity (% positive for DAPI takeup @ 50 μM) (HeLa MKYP cells [2]; Table 2): 4.5%
C[C@@H](Nc1ncnc2[nH]cnc12)c1ccccc1 [Compound 63] |  |  | 11.5 |  | EC50 (HeLa MKYP cells [1]; Table 3, read-out: Potency at 1 μM F/O toxin* (EC50 of mitophagy activation)): 47.4 µM; EC50 (HeLa MKYP cells [1]; Table 3 Supplement A, as measured in Table 3, read-out: Potency (EC50 Max Mitophagy) (μM)*): > 25 µM; Toxicity (% positive for DAPI take-up at 50 μM)* (HeLa MKYP cells [2]; listed as EP-0036422): 11.51%
FC(F)(F)c1cc2c(NC3COc4ccccc43)ncnc2[nH]1 (stereo not shown) [Compound 13] |  |  |  |  | activation at 1.6 µM (HeLa MKYP cells [1]; Homo sapiens, HeLa): 52.5%; Toxicity (% positive for DAPI takeup @ 50 μM) (HeLa MKYP cells [2]; Table 2): 39.7%
CC(C)(Nc1ncnc2[nH]c(C(F)(F)F)cc12)c1ccccc1 [Compound 10] |  |  |  |  | activation at 1.6 µM (HeLa MKYP cells [1]; Homo sapiens, HeLa): 17%; Toxicity (% positive for DAPI takeup @ 50 μM) (HeLa MKYP cells [2]; Table 2): 5.6%
C[C@H](Nc1ncnc2[nH]c(C(F)(F)F)cc12)c1ccccc1 [Compound 40] | 0.3 | 0.02 | 90.8 | 92.03 | 
c1ccc2c(c1)OCC2Nc1ncnc2[nH]cnc12 (stereo not shown) [Compound 53] | 6.1 | 6.11 | 21.0 | 20.95 | 
CCCCNc1ncnc2[nH]c(C(OCC)C(F)(F)F)cc12 (stereo not shown) [Compound 5] |  |  |  |  | Potency at 1 μM F/O toxin (HeLa MKYP cells [1]): 17.9%; Toxicity (% positive for DAPI take-up @ 50 μM) (HeLa MKYP cells [2]): 47.4%
OC[C@@H](Nc1ncnc2[nH]c(C(F)(F)F)cc12)c1ccccc1 [Compound 77] | 4.4 | 4.41 | 30.3 | 30.27 | 
FC(F)(F)c1cc2c(NC3CCc4ccccc43)ncnc2[nH]1 (stereo not shown) [Compound 18] |  |  |  |  | Potency at 1 μM F/O toxin* (HeLa MKYP cells [1]): 14.3%; Toxicity (% positive for DAPI takeup @ 50 μM) (HeLa MKYP cells [2]; Table 2): 1.7%
COc1cc(CNc2ncnc3[nH]c(C4CC4)nc23)ccn1 [Compound 35] | > 50 |  | 7.1 |  | 
CCCCNc1ncnc2[nH]c(CC(F)(F)F)cc12 [Compound 4] |  |  |  |  | Potency at 1 μM F/O toxin (HeLa MKYP cells [1]): 13.9%; Toxicity (% positive for DAPI take-up @ 50 μM) (HeLa MKYP cells [2]): 24.8%
FC(F)(F)c1cc2c(NCc3ccccc3)ncnc2[nH]1 [Compound 9] |  |  |  |  | activation at 1.6 µM (HeLa MKYP cells [1]; Homo sapiens, HeLa): 35.1%; Toxicity (% positive for DAPI takeup @ 50 μM) (HeLa MKYP cells [2]; Table 2): 50.4%
Fc1cccc(CNc2ncnc3[nH]c(C(F)(F)F)cc23)c1Cl [Compound 23] |  |  | 4.5 |  | activation at 6.3 µM (HeLa MKYP cells [1]; Homo sapiens, HeLa, Table 3): 87.7%
FC(F)(F)c1cc2c(NCc3cncnc3)ncnc2[nH]1 [Compound 19] |  |  |  |  | activation at 6.3 µM (HeLa MKYP cells [1]; Homo sapiens, HeLa, Table 3): 50.3%; Toxicity (% positive for DAPI takeup @ 50 μM) (HeLa MKYP cells [2]; human): 1.7%
c1ncc(CNc2ncnc3[nH]c(C4CC4)nc23)cn1 [Compound 36] | > 50 |  |  |  | Toxicity (% positive for DAPI takeup @ 50 μM) (HeLa MKYP cells [2]; human): 7.1%
FC(F)(F)c1cc2c(NC3CCOc4ccccc43)ncnc2[nH]1 (stereo not shown) [Compound 33] | 3.5 |  | 22.3 |  | 
CCCCNc1ncnc2[nH]c(CC)cc12 [Compound 7] |  |  |  |  | Potency at 1 μM F/O toxin (HeLa MKYP cells [1]): 14.0%; Toxicity (% positive for DAPI take-up @ 50 μM) (HeLa MKYP cells [2]): 93.4%
OC[C@@H](Nc1ncnc2[nH]cnc12)c1ccccc1 [Compound 61] | > 50 | > 25 | 8.9 | 8.9 | 
FC(F)(F)c1cc2c(NCc3cnccn3)ncnc2[nH]1 [Compound 21] |  |  | 0.9 |  | activation at 6.3 µM (HeLa MKYP cells [1]; Homo sapiens, HeLa, Table 3): 9.1%
CCCCNc1ncnc2[nH]c(-c3ccnn3C)cc12 [Compound 2] |  |  |  |  | Potency at 1 μM F/O toxin (HeLa MKYP cells [1]): 15.0%; Toxicity (% positive for DAPI take-up @ 50 μM) (HeLa MKYP cells [2]): 94.6%
